# Source: patent publication US20110300246A1, “Herbal Extracts for Treatment of Diabetic Complications and Oxidative Stress” (priority 2010, published 2011)
# Assays:
# [1] = tested on: bovine serum albumin (BSA)-AGEs formation; assay: Glucose and methylglyoxal induced BSA-AGEs formation in vitro (fluorescence); type: biochemical; conditions: BSA + 2 mM methylglyoxal + 200 mM glucose, 37° C., 7 days
# Description: Glucose and Methylglyoxal induced bovine serum albumin (BSA)-AGEs formation is used to test the inhibitory effects of the inventive single herbal extract and mixed herbal extracts on the formation of AGEs in vitro.
# Methods: As a protein source, BSA (Sigma-Aldrich, St. Louis, Mo., USA) was dissolved in 50 mM phosphate buffer (pH 7.4) to a concentration of 10 mg/ml. As a sugar source, a mixture of 2 mM methylglyoxal and 200 mM glucose (sigma-Aldrich, St. Louis, Mo., USA) was used. This sugar mixture was added to the prepared BSA solution for use in tests. […] Aminoguanidine (AG), a positive control drug, was tested in the same manner except that AG was dissolved in distilled water. As a negative control group, a culture consisting of BSA, the sugar mixture and 10% Tween80 was cultured. As blanks to the control and test groups, the materials for the test group and the materials for the control group were used after preparation without incubation. Five samples for each group were used to reduce errors to the lowest possible extent. After 7 days incubation, the amounts of AGEs in test samples were determined by measuring the fluorescence at an emission wavelength of 440 nm and an excitation wavelength at 370 nm using a fluorescence Spectrophotometer. The inhibition (%) of the formation of AGEs was calculated according to the following equation:
# Inhibition (%) of production=100−[(fluorescent intensity of test group−fluorescent intensity of blank to test group)/(fluorescent intensity of control group−fluorescent intensity of blank to control group)]×100.
# STZ-diabetic rats [2] = assay: Body weight gain and general well-being in STZ-diabetic rats, 12 weeks treatment; type: in vivo, rat
# Description: (§1) Male Sprague-Dawley male rats, weighing 200-250 g, aged 8-10 weeks, were used. Diabetes was induced by administration of streptozotocin (STZ, Sigma-Aldrich, USA) in 0.1 mol/L sodium citrate (pH 4.5) at a dose of 55 mg/kg intraperitoneally. After 48 hours injection, blood glucose levels of the animals were examined using glucose meter. The induction of diabetes was confirmed when the blood glucose level was greater than 300 mg/dl. Animals were maintained in diabetic conditions for 2 weeks without any treatment and blood glucose was determined every week to ensure the subsistence of diabetes. Animals with uncertain blood glucose levels or blood glucose exceeding 600 mg/dl were excluded from the study.
# (§2) HEM was suspended in 1% carboxymethylcellulose (CMC) before use. Aminogunidine was dissolved in water first and then added into 1% CMC before use. […] The diabetes-induced and the normal control groups consisted of 8 animals of each. The initial body weights and blood glucose levels of the diabetic animals were similar among the three groups. […] The normal control group and the diabetic control group were administered with equivalent volume of CMC daily for 12 weeks. […]
# The general behavioral status of the animals (i.e. locomotor activity, alertness to environmental changes) was observed every day, and the body weight and food intake were measured weekly.
# [3] = tested on: STZ-induced diabetic rats; assay: Immunohistochemical staining for insulin in pancreatic islets of STZ-diabetic rats; type: in vivo, rat; conditions: 12 weeks treatment, FIG. 2
# Description: as §1
# as §2, with “weeks. The standard rat diet and water were available ad libitum throughout the entire treatment period.” for “weeks.”
# [4] = tested on: STZ-induced diabetic rats; assay: AGE-fluorescence in the pancreas of STZ-diabetic rats; type: in vivo, rat; conditions: 12 weeks treatment, FIG. 3
# Description: as §1, with “Animals with uncertain blood glucose levels or blood glucose exceeding 600 mg/dl were excluded from the study.” left out
# Minced pancreatic tissue was delipidated with chloroform and methanol (2:1,v/v) overnight. […] The amounts of AGEs in these alkali-soluble samples were determined by measuring the fluorescence at an emission wavelength of 440 nm and an excitation wavelength at 370 nm using a fluorescence Spectrophotometer. A native bovine serum albumin (BSA) preparation (1 mg/ml of 0.1 N NaOH) was used as a standard, and its fluorescence intensity was defined as one arbitrary unit (AU). The fluorescence values of samples were measured at a protein concentration of 1 mg/ml and expressed in arbitrary unit (AU) compared with a native BSA preparation. Sample protein concentrations were determined using Bradford method.
# STZ-diabetic rats [5] = assay: Fluorescent AGEs and CML-AGE in the descending aorta of STZ-diabetic rats; type: in vivo, rat; conditions: 12 weeks, FIG. 6 and FIG. 7
# Description: as §1
# as §2, with “weeks. The standard rat diet and water were available ad libitum throughout the entire treatment period.” for “weeks.”
# STZ-diabetic rats [6] = assay: 24-hr urinary albumin excretion in STZ-diabetic rats; type: in vivo, rat; conditions: 12 weeks, P<0.01, FIG. 8
# Description: as §1
# HEM was suspended in 1% carboxymethylcellulose (CMC) before use. Aminogunidine was dissolved in water first and then added into 1% CMC before use. […] The diabetes-induced and the normal control groups consisted of 8 animals of each. The initial body weights and blood glucose levels of the diabetic animals were similar among the three groups. […]
# Development of albuminuria is a cardinal manifestation of glomerular injury and a pathological factor in the progression of renal dysfunction. […] The levels of urinary albumin were quantified using a commercial assay kit (Guangzhou WhiJa Technology, Inc. Guangzhou, China), according to the manufacturer's instructions.
# STZ-diabetic rats [7] = assay: AGE levels in the kidney cortex of STZ-diabetic rats; type: in vivo, rat; conditions: 12 weeks, mean ± SD, n=8
# Description: as §1
# as §2, with “weeks. The standard rat diet and water were available ad libitum throughout the entire treatment period.” for “weeks.”
# STZ-diabetic rats [8] = assay: Renal oxidative stress (SOD activity, MDA) in STZ-diabetic rats; type: in vivo, rat; conditions: renal cortical tissue, 12 weeks, mean ± SD, n=8
# Description: as §1
# HEM was suspended in 1% carboxymethylcellulose (CMC) before use. Aminogunidine was dissolved in water first and then added into 1% CMC before use. […] The diabetes-induced and the normal control groups consisted of 8 animals of each. […]
# For measurements of SOD activity and MDA contents, the renal cortical tissues were homogenized in a buffer solution (0.25 M sucrose, 0.5 mM EDTA, 50 mM HEPES, protease inhibitors) on ice and centrifuged at 4° C. at 12,000 rpm for 20 min. The supernatants were collected and analyzed with corresponding assay kits (Nanjing Jiancheng Shengwu Yanjiu Suo, Nanjing, China) according to the manufacturer's instructions, […]
structure (smiles),measurement,setting,value
"N=C(N)NN [Aminoguanidine, aminoguanidine]",Inhibition (%) of the formation of AGEs,[1]; 12.5 mcg/ml,19.6 ± 3.6%
same,Inhibition (%) of the formation of AGEs,[1]; 25 mcg/ml,31.7 ± 3.5%
same,Inhibition (%) of the formation of AGEs,[1]; 50 mcg/ml,44.8 ± 2.9%
same,Inhibition (%) of the formation of AGEs,[1]; 100 mcg/ml,69.9 ± 3.5%
same,body weight increase by the end of the experiment,STZ-diabetic rats [2]; 12 weeks oral treatment,44.0 g
same,Body weight (g) (after treatment),"STZ-diabetic rats [2]; oral gavage daily 12 weeks, HEM 500 mg/kg, AG 50 mg/kg, mean ± SD, n=8",258.6 ± 8.1 g
same,insulin immunostaining in the pancreatic islets,[3],no evident effect
same,pancreatic level of AGEs (fluorescence),[4],effectively lowered
same,accumulation of AGEs (fluorescent AGEs and CML-AGE) in the descending aorta,STZ-diabetic rats [5],effectively reduced
same,reduction of 24-hr urinary albumin excretion compared with STZ-diabetic control group,STZ-diabetic rats [6],37.3%
same,AGE-fluorescence in the kidney cortex,STZ-diabetic rats [7],3.4 ± 0.5 AU/mg protein
same,CML-AGE in the kidney cortex,STZ-diabetic rats [7],262.8 ± 55.4 ng/mg protein
same,Renal MDA,STZ-diabetic rats [8],8.82 ± 1.92 μM/mg protein
same,Renal SOD activity,STZ-diabetic rats [8],1.78 ± 0.42 Unit/mg protein
